Test results published in patent US10800772B2 (Gilead Sciences, Inc., priority 2016, dated 2020).
Like-named read-outs stand apart in the source and are kept apart here.

How the values were obtained:
Format in all cases: cell-based, HIV-1
HIV-IIIb (wildtype) = experiment: Antiviral assay in MT4 cells, HIV-IIIb wildtype; details: read-out: WT EC50
Summary of the method: (§1)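 Luminescence from CellTiter-Glo after a 5-day culture served as the measure of HIV-1 replication in MT4 cells. Cells were infected beforehand for 3 h with HIV-IIIb (0.004 m.o.i.) and exposed to ten 3-fold compound dilutions. EC50 corresponds to a 50% signal decrease.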

HIV-IIIb IN T174I BT = experiment: Antiviral assay in MT4 cells, HIV-IIIb IN T174I BT virus (from viral breakthrough)
Summary of the method: as §1

HIV-IIIb IN T174I DE = experiment: Antiviral assay in MT4 cells, HIV-IIIb IN T174I DE virus (from dose escalation passaging)
Summary of the method: as §1

[1] = Human immunodeficiency virus 1, IIIB, MT4, 120 h
[2] = Human immunodeficiency virus 1, IIIB, MT4, 120 h, read-out: T174I BT EC50, MT4 cells, HIV-IIIb IN T174I BT (viral breakthrough), 5 days, CellTiter-Glo
[3] = Human immunodeficiency virus 1, IIIB, MT4, 120 h, read-out: T174I DE EC50, MT4 cells, HIV-IIIb IN T174I DE (dose escalation), 5 days, CellTiter-Glo
[4] = MT4 cells, HIV-IIIb wildtype, 5 days, CellTiter-Glo
[5] = MT4 cells, HIV-IIIb IN T174I BT (viral breakthrough), 5 days, CellTiter-Glo, read-out: T174I BT EC50
[6] = MT4 cells, HIV-IIIb IN T174I DE (dose escalation), 5 days, CellTiter-Glo, read-out: T174I DE EC50

Row | Molecule | EC50 (HIV-IIIb (wildtype); [1]) | EC50 (HIV-IIIb IN T174I BT; [2]) | EC50 (HIV-IIIb IN T174I DE; [3]) | EC50 (HIV-IIIb (wildtype); [4]) | EC50 (HIV-IIIb IN T174I BT; [5]) | EC50 (HIV-IIIb IN T174I DE; [6])
1 | CCOC(=O)N1CC(N2CCC(c3nn(C)c4ncc(-c5nc6cc(C)c([C@H](OC(C)(C)C)C(=O)O)c(-c7ccc(Cl)cc7)c6s5)cc34)CC2)C1 [Compound 115, (S)-2-(tert-butoxy)-2-(7-(4-chlorophenyl)-2-(3-(1-(1-(ethoxycarbonyl)azetidin-3-yl)piperidin-4-yl)-1-methyl-1H-pyrazolo[3,4-b]pyridin-5-yl)-5-methylbenzo[d]thiazol-6-yl)acetic acid] | 14 nM | 1600 nM | 2450 nM | – | – | –
2 | Cc1cc2nc(-c3ccc4c(c3)c(N3CCC(C5COC5)CC3)nn4C)sc2c(-c2ccc(Cl)cc2)c1[C@H](OC(C)(C)C)C(=O)O [Compound 146, (S)-2-(tert-butoxy)-2-(7-(4-chloro-phenyl)-5-methyl-2-(1-methyl-3-(4-(oxetan-3-yl)piperidin-1-yl)-1H-indazol-5-yl)benzo[d]thiazol-6-yl)acetic acid] | 31 nM | 1740 nM | 2220 nM | – | – | –
3 | CO[C@H]1CCN(c2nn(C)c3ccc(-c4nc5cc(C)c([C@H](OC(C)(C)C)C(=O)O)c(-c6ccc(Cl)cc6)c5s4)cc23)C1 [Compound 139, (S)-2-(tert-butoxy)-2-(7-(4-chloro-phenyl)-2-(3-((S)-3-methoxy-pyrrolidin-1-yl)-1-methyl-1H-indazol-5-yl)-5-methylbenzo[d]thiazol-6-yl) acetic acid] | 88 nM | 7810 nM | 5780 nM | – | – | –
4 | Cc1cc2nc(-c3ccc4c(n3)c(C3CCN(C5CN(C(=O)OC(C)C)C5)CC3)nn4C)sc2c(-c2ccc(Cl)cc2)c1[C@H](OC(C)(C)C)C(=O)O [Compound 168, (S)-2-(tert-butoxy)-2-(7-(4-chloro-phenyl)-2-(3-(1-(1-(isopropoxy-carbonyl)azetidin-3-yl)piperidin-4-yl)-1-methyl-1H-pyrazolo[4,3-b]pyridin-5-yl)-5-methylbenzo[d]thiazol-6-yl) acetic acid] | 11 nM | 230 nM | 456 nM | – | – | –
5 | CN[C@H]1CCN(c2nn(C)c3ccc(-c4nc5cc(C)c([C@H](OC(C)(C)C)C(=O)O)c(-c6ccc(Cl)cc6)c5s4)cc23)C1 [Compound 94, (S)-2-(tert-butoxy)-2-(7-(4-chlorophenyl)-5-methyl-2-(1-methyl-3-((S)-3-(methylamino)pyrrolidin-1-yl)-1H-indazol-5-yl)benzo[d]thiazol-6-yl)acetic acid] | 38 nM | 2720 nM | 2520 nM | – | – | –
6 | Cc1cc2nc(-c3ccc4c(c3)c(C3CCN(CC5CCO5)CC3)nn4C)sc2c(-c2ccc(Cl)cc2)c1[C@H](OC(C)(C)C)C(=O)O (stereo partly drawn) [Compound 6, (2S)-2-(tert-butoxy)-2-(7-(4-chlorophenyl)-5-methyl-2-(1-methyl-3-(1-(oxetan-2-ylmethyl)piperidin-4-yl)-1H-indazol-5-yl)benzo[d]thiazol-6-yl)acetic Acid] | 4 nM | 283 nM | 577 nM | – | – | –
7 | Cc1cc2nc(-c3ccc4c(c3)c(N3CCN(C)C(=O)C3)nn4C)sc2c(-c2ccc(Cl)cc2)c1[C@H](OC(C)(C)C)C(=O)O [Compound 85, (S)-2-(tert-butoxy)-2-(7-(4-chlorophenyl)-5-methyl-2-(1-methyl-3-(4-methyl-3-oxopiperazin-1-yl)-1H-indazol-5-yl)benzo[d]thiazol-6-yl)acetic acid] | 57 nM | 1350 nM | 1170 nM | – | – | –
8 | COC(=O)N1CC[C@@H]1CN1CCC(c2nn(C)c3ccc(-c4nc5cc(C)c([C@H](OC(C)(C)C)C(=O)O)c(-c6ccc(Cl)cc6)c5s4)cc23)CC1 [Compound 5, (S)-2-(tert-butoxy)-2-(7-(4-chlorophenyl)-2-(3-(1-(((R)-1-(methoxycarbonyl)azetidin-2-yl)methyl)piperidin-4-yl)-1-methyl-1H-indazol-5-yl)-5-methylbenzo[d]thiazol-6-yl)acetic Acid] | 3 nM | 106 nM | 169 nM | – | – | –
9 | (S)-2-(tert-butoxy)- 2-(7-(4-chloro- phenyl)-2-(3-(1-(2- (dimethylamino) ethyl)piperidin-4- yl)-1-methyl-1H- indazol-5-yl)-5- methylbenzo[d] thiazol-6-yl) acetic acid [Compound 130] | – | – | – | 12 nM | 122 nM | 232 nM
10 | CCN1CCN(c2nn(C)c3ccc(-c4nc5cc(C)c([C@H](OC(C)(C)C)C(=O)O)c(-c6ccc(Cl)cc6)c5s4)cc23)CC1=O [Compound 84, (S)-2-(tert-butoxy)-2-(7-(4-chlorophenyl)-2-(3-(4-ethyl-3-oxopiperazin-1-yl)-1-methyl-1H-indazol-5-yl)-5-methylbenzo[d]thiazol-6-yl)acetic acid] | 48 nM | 1250 nM | 1870 nM | – | – | –
11 | (S)-2-(tert-butoxy)- 2-(7-(4-chloro- phenyl)-2-(3-((R)- hexahydropyrazino [2,1-c][1,4]oxazin- 8(1H)-yl)-1-methyl- 1H-indazol-5-yl)- 5-methylbenzo[d] thiazol-6-yl)acetic acid [Compound 135] | – | – | – | 10 nM | 399 nM | 1060 nM
12 | Cc1cc2nc(-c3cnc4c(c3)c(N3CCN(C(C)C)CC3)nn4C)sc2c(-c2ccc(Cl)cc2)c1[C@H](OC(C)(C)C)C(=O)O [Compound 111, (S)-2-(tert-butoxy)-2-(7-(4-chlorophenyl)-2-(3-(4-isopropylpiperazin-1-yl)-1-methyl-1H-pyrazolo[3,4-b]pyridin-5-yl)-5-methylbenzo[d]thiazol-6-yl)acetic acid] | 5 nM | 1150 nM | 2880 nM | – | – | –
13 | Cc1cc2nc(-c3ccc4c(c3)c(C3CCN(C(C)C)CC3)nn4C)sc2c(-c2ccc(Cl)cc2)c1[C@H](OC(C)(C)C)C(=O)O [Compound 127, (S)-2-(tert-butoxy)-2-(7-(4-chloro-phenyl)-2-(3-(1-isopropylpiperidin-4-yl)-1-methyl-1H-indazol-5-yl)-5-methylbenzo[d]thiazol-6-yl) acetic acid] | 8 nM | 932 nM | 1700 nM | – | – | –
14 | Cc1cc2nc(-c3ccc4c(c3)c(C3CCN(C(=O)C5(C)CCCO5)CC3)nn4C)sc2c(-c2ccc(Cl)cc2)c1[C@H](OC(C)(C)C)C(=O)O (stereo partly drawn) [Compound 158, (2S)-2-(tert-butoxy)-2-(7-(4-chloro-phenyl)-5-methyl-2-(1-methyl-3-(1-(2-methyltetrahydro-furan-2-carbonyl)piperidin-4-yl)-1H-indazol-5-yl)benzo [d]thiazol-6-yl) acetic acid] | 11 nM | 1300 nM | 1670 nM | – | – | –
15 | Cc1cc2nc(-c3ccc4c(c3)c(N3CCC(C)(C(=O)N(C)C)CC3)nn4C)sc2c(-c2ccc(Cl)cc2)c1[C@H](OC(C)(C)C)C(=O)O [Compound 137, (S)-2-(tert-butoxy)-2-(7-(4-chloro-phenyl)-2-(3-(4-(dimethyl-carbamoyl)-4-methylpiperidin-1-yl)-1-methyl-1H-indazol-5-yl)-5-methylbenzo[d]thiazol-6-yl) acetic acid] | 10 nM | 697 nM | 962 nM | – | – | –
16 | Cc1cc2nc(-c3ccc4c(n3)c(N3CCN(C5CS(=O)(=O)C5)CC3)nn4C)sc2c(-c2ccc(Cl)cc2)c1[C@H](OC(C)(C)C)C(=O)O [Compound 198, (S)-2-(tert-butoxy)-2-(7-(4-chloro-phenyl)-2-(3-(4-(1,1-dioxidothietan-3-yl)piperazin-1-yl)-1-methyl-1H-pyrazolo[4,3-b]pyridin-5-yl)-5-methylbenzo[d]thiazol-6-yl) acetic acid] | 9 nM | 1040 nM | 4620 nM | – | – | –
17 | COCCN1CCC(c2nn(C)c3ccc(-c4nc5cc(C)c([C@H](OC(C)(C)C)C(=O)O)c(-c6ccc(Cl)cc6)c5s4)cc23)C1 (stereo partly drawn) [Compound 65, (2S)-2-(tert-butoxy)-2-(7-(4-chlorophenyl)-2-(3-(1-(2-methoxyethyl)pyrrolidin-3-yl)-1-methyl-1H-indazol-5-yl)-5-methylbenzo[d]thiazol-6-yl)acetic acid] | 4 nM | 752 nM | 2120 nM | – | – | –
18 | Cc1cc2nc(-c3ccc4c(c3)c(N3CCN5C(=O)COC[C@@H]5C3)nn4C)sc2c(-c2ccc(Cl)cc2)c1[C@H](OC(C)(C)C)C(=O)O [Compound 138, (S)-2-(tert-butoxy)-2-(7-(4-chloro-phenyl)-5-methyl-2-(1-methyl-3-((S)-4-oxohexa-hydropyrazino[2,1-c][1,4]oxazin-8 (1H)-yl)-1H-indazol-5-yl)benzo[d]thiazol-6-yl)acetic acid] | 7 nM | 373 nM | 678 nM | – | – | –
19 | Cc1cc2nc(-c3ccc4c(c3)c(C3CCN(C5CC(F)(F)C5)CC3)nn4C)sc2c(-c2ccc(Cl)cc2)c1[C@H](OC(C)(C)C)C(=O)O [Compound 155, (S)-2-(tert-butoxy)-2-(7-(4-chloro-phenyl)-2-(3-(1-(3,3-difluorocyclo-butyl)piperidin-4-yl)-1-methyl-1H-indazol-5-yl)-5-methylbenzo[d]thiazol-6-yl) acetic acid] | 13 nM | 922 nM | 1920 nM | – | – | –
